Among the data in ChEMBL document CHEMBL3991601, “The target landscape of clinical kinase drugs” (Science, 2017) are Kd values, retold here.

Experiment [1] has as its target T1, Acyl-CoA dehydrogenase family member 10 (Homo sapiens, UniProt Q6JQN1).
T1 sequence (Q6JQN1 whole entry): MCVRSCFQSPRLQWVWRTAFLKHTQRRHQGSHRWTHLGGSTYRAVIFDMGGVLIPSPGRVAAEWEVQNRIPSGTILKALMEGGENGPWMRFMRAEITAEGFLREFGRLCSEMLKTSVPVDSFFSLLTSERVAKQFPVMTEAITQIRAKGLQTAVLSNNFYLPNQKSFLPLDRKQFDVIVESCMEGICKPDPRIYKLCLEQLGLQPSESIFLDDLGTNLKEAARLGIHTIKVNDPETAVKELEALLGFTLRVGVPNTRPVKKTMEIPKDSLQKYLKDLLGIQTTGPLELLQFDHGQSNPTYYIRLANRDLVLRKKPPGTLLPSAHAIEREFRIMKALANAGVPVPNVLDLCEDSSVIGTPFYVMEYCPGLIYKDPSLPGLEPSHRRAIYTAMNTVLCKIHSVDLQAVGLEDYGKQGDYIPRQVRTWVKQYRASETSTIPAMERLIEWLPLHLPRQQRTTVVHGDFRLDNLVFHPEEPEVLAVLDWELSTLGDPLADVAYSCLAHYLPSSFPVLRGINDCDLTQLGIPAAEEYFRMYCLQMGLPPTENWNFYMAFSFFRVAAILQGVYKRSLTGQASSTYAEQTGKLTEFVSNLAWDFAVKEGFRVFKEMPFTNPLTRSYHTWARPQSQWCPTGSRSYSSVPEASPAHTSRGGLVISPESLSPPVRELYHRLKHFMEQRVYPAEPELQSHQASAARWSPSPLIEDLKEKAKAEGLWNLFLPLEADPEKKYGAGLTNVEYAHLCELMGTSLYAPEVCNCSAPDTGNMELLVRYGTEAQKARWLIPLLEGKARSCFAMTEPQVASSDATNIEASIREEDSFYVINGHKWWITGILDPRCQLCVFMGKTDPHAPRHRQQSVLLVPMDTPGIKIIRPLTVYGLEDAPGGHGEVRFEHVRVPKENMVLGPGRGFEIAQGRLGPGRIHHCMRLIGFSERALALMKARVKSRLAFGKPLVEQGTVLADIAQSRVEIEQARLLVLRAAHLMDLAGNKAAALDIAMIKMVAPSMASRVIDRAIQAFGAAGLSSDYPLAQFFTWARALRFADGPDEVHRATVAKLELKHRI

The target in experiment [2] is Insulin-like growth factor 1 receptor (Homo sapiens, UniProt P08069).
For experiment [3], the target named is T2, Serine/threonine-protein kinase D3 (Homo sapiens, UniProt O94806).
T2 sequence (O94806 whole entry): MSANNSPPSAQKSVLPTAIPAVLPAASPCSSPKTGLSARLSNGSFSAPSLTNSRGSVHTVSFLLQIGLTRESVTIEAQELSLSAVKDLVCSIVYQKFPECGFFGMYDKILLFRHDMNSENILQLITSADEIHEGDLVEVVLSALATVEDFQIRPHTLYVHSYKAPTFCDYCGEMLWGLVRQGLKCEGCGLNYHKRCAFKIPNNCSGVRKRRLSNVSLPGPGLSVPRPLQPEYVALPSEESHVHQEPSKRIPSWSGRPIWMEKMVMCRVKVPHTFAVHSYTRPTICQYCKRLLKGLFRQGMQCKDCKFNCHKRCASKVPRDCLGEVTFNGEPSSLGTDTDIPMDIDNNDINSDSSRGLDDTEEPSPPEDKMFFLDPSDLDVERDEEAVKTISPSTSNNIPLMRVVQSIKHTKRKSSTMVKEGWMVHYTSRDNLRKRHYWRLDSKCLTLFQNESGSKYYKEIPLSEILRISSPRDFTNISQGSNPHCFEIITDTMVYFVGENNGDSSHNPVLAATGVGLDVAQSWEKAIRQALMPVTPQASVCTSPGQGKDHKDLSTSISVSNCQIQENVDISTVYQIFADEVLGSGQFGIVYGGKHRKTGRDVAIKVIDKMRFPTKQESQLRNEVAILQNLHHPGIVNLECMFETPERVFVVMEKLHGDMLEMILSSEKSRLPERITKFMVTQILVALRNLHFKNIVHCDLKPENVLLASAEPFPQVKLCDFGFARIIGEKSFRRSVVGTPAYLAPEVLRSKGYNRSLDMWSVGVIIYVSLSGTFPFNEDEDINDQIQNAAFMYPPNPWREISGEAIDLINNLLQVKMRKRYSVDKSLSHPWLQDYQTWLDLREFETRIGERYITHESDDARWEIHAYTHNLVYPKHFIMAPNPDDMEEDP

Another experiment addresses Ephrin type-A receptor 2 (Homo sapiens, UniProt P29317).
Experiment [4] addresses MAP kinase-activated protein kinase 2 (Homo sapiens, UniProt P49137).
Experiment [5] addresses T3, Calcium/calmodulin-dependent protein kinase type IV (Homo sapiens, UniProt Q16566).
T3 sequence (Q16566 whole entry): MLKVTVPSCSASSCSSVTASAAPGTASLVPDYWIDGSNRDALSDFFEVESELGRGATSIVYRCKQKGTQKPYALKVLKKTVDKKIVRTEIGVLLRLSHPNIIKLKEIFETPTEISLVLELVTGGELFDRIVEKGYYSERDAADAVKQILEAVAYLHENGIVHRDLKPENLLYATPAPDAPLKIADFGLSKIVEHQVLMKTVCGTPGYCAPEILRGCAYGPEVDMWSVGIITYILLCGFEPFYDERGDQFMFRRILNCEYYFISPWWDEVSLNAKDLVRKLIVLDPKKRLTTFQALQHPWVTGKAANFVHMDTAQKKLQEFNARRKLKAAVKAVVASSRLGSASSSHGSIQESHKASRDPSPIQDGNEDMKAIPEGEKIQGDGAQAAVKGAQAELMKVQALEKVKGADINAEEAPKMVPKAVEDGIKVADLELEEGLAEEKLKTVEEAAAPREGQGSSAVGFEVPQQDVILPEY

In experiment [6] the target is Mitogen-activated protein kinase kinase kinase 1 (Homo sapiens, UniProt Q13233).
Experiment [7] concerns the target Cyclin-dependent kinase 13 (Homo sapiens, UniProt Q14004).
The next experiment deals with Deoxycytidine kinase (Homo sapiens, UniProt P27707).
The target in experiment [8] is T4, Ras-related protein Rab-27A (Homo sapiens, UniProt P51159).
T4 sequence (P51159 whole entry): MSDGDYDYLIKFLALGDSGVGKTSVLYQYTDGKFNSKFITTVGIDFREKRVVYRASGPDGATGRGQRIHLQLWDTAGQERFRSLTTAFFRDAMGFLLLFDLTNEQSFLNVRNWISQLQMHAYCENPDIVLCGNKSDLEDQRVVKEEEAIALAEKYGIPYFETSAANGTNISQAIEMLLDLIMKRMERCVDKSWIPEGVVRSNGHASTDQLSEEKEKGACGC

Calls of active or inactive are those of the source. Cut-off read from the data, not from the text of the source, for most assays here: actives have a measured Kd and inactives only a lower limit.
Note: in the data inactive means no Kd found up to 30 µM.

MAP kinase-activated protein kinase 2, sequence (P49137 whole entry): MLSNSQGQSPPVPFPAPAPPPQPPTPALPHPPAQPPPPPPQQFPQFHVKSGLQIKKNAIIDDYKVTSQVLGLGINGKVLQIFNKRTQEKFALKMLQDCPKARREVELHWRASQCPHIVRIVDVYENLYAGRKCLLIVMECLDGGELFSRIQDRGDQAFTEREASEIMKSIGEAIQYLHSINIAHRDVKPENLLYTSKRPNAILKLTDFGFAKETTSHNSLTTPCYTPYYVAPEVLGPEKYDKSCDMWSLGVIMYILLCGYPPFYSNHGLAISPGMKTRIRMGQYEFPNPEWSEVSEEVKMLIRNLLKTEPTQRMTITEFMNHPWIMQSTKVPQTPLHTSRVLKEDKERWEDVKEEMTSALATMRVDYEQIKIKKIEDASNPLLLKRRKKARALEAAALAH
Mitogen-activated protein kinase kinase kinase 1, sequence (Q13233 whole entry): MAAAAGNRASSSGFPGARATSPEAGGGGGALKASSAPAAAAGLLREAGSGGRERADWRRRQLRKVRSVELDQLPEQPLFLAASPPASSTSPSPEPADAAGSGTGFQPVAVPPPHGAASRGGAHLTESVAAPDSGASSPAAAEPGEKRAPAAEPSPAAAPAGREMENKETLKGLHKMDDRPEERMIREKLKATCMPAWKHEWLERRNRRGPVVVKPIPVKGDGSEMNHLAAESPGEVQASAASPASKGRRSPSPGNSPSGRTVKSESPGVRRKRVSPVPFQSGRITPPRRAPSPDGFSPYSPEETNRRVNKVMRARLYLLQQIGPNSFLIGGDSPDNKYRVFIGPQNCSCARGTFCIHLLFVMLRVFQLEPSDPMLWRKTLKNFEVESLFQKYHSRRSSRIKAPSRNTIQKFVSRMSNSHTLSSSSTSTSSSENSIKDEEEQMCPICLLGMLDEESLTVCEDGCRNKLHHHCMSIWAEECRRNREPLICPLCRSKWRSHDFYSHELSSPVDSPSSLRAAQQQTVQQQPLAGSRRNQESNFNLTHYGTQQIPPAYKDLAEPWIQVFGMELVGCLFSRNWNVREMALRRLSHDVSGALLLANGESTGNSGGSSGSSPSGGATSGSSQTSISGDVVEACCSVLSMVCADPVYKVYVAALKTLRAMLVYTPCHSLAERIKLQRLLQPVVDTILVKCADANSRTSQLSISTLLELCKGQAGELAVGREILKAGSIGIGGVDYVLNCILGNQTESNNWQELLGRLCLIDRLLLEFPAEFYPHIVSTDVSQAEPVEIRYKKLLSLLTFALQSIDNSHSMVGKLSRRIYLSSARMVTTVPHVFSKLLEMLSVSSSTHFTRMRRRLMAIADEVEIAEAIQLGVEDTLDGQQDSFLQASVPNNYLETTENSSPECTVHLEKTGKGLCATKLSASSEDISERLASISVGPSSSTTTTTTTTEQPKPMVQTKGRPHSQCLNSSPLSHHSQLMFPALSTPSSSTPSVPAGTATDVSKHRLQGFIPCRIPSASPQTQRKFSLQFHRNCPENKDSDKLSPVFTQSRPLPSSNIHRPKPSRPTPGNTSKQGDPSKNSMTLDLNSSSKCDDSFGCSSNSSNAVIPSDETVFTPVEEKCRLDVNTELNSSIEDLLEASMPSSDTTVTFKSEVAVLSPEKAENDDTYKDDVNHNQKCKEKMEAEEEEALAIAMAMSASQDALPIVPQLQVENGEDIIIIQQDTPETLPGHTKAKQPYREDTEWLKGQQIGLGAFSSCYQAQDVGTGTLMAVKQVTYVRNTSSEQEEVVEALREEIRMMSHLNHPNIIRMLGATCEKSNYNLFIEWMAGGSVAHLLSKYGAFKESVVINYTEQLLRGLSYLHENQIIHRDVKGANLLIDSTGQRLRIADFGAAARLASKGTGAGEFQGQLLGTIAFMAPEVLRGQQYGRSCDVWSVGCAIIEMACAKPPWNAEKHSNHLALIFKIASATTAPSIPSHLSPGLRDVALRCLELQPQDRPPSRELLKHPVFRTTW
Cyclin-dependent kinase 13, sequence (Q14004 whole entry): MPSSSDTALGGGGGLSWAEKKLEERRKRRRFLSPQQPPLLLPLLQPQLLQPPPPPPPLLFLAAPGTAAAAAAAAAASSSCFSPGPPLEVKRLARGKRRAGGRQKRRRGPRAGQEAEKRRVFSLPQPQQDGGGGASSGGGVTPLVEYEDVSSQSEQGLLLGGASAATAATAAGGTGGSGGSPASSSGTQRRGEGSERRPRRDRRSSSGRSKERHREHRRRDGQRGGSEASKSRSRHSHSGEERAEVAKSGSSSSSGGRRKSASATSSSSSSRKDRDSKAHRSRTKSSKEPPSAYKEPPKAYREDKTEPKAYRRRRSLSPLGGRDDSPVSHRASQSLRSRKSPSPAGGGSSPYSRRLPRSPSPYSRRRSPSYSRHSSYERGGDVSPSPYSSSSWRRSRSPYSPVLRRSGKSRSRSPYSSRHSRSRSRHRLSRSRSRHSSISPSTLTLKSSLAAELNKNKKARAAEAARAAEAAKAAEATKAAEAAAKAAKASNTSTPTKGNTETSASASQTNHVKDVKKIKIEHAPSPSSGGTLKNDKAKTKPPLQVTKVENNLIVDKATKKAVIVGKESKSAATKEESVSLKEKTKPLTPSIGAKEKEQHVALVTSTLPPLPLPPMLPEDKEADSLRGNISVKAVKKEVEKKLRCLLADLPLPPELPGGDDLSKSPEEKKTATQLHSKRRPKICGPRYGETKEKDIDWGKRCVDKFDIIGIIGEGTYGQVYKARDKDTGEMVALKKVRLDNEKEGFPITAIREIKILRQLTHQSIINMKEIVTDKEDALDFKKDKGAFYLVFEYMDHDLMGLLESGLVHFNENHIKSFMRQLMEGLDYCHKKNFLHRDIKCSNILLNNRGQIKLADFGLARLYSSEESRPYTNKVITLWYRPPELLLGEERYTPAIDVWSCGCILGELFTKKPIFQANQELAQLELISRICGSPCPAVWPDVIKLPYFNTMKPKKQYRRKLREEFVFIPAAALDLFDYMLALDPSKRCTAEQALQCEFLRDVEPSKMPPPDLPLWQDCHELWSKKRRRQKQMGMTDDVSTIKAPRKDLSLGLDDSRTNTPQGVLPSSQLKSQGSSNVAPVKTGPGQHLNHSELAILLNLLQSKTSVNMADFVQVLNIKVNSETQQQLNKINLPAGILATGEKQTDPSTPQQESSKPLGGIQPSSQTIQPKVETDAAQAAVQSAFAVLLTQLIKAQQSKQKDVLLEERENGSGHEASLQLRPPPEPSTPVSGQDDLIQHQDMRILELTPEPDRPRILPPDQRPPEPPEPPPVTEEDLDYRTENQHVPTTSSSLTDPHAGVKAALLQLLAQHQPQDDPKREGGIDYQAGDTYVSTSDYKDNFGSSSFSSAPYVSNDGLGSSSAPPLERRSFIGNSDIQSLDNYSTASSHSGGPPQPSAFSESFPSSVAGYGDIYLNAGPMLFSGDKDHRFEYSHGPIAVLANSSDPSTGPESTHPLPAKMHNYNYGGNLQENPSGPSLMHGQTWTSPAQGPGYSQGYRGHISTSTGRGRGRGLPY
Insulin-like growth factor 1 receptor, sequence (P08069 31-736 limits assumed): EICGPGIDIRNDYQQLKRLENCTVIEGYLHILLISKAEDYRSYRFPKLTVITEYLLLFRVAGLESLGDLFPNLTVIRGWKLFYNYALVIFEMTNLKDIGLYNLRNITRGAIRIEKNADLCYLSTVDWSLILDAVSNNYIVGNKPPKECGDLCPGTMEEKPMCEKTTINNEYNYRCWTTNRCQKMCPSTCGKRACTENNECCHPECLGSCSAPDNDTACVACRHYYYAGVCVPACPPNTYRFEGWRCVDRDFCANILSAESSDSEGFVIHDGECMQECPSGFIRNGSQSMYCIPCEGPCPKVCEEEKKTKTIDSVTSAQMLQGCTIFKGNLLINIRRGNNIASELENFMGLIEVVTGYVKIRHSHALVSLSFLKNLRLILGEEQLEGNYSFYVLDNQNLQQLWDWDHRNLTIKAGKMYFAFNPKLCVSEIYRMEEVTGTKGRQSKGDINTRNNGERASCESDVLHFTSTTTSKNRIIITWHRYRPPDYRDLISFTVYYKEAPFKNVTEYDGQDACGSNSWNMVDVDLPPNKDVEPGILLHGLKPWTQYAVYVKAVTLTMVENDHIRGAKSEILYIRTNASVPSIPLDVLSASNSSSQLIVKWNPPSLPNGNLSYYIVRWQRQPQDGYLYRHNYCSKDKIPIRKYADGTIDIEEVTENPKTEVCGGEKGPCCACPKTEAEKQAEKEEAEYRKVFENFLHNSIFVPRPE
Insulin-like growth factor 1 receptor, sequence (P08069 741-1367 limits assumed): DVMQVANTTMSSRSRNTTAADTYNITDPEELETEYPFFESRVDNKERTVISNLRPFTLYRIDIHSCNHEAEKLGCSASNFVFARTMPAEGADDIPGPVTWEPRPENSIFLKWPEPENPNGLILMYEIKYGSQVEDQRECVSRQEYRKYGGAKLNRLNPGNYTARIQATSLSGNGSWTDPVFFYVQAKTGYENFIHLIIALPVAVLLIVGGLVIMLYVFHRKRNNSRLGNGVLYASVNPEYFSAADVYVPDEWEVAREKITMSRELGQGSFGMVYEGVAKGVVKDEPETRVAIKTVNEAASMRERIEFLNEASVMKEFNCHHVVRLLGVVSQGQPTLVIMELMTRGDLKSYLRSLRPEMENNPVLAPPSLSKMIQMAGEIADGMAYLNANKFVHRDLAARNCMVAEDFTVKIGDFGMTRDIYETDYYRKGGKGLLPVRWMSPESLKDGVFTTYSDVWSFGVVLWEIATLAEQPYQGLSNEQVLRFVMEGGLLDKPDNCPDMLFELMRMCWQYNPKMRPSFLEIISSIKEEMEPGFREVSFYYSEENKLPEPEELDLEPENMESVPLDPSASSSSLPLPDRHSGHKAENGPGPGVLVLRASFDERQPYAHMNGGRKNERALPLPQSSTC
Deoxycytidine kinase, sequence (P27707 whole entry): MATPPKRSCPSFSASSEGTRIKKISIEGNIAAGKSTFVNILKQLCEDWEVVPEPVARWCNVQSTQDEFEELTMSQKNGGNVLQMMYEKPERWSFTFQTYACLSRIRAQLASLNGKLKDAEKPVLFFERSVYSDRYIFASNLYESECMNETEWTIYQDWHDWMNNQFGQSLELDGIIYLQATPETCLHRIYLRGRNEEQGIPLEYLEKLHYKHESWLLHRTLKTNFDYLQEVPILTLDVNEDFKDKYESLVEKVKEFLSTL

Turning to `Cc1cnc(NC(=O)Nc2cc(Br)c(C)cc2OC[C@@H]2CNCCO2)cn1` [RABUSERTIB], the Kd (in experiment [1]; in [2]; in experiment [3]; at Ephrin type-A receptor 2; in [4]; in experiment [5]) was > 30 µM (inactive) throughout. For the same compound, the Kd (in experiment [6]; in experiment [7]; at Deoxycytidine kinase; in [8]) was > 30 µM (inactive) each time.

Take `CNC(=O)c1cc(Oc2ccc(NC(=O)Nc3cc(C(C)(C)C)nn3-c3ccc4ncccc4c3)c(F)c2)ccn1` [REBASTINIB]: the Kd is > 30 µM (inactive) in [1]; > 30 µM (inactive) in [2]; > 30 µM (inactive) in [3]; > 30 µM (inactive) at Ephrin type-A receptor 2; 4.69 µM (active) in experiment [4]; > 30 µM (inactive) in [5]. Also, the Kd (in experiment [6]; in experiment [7]; on Deoxycytidine kinase; in experiment [8]) was > 30 µM (inactive) each time.

As for `CO[C@H]1C[C@@H]2CC[C@@H](C)[C@@](O)(O2)C(=O)C(=O)N2CCCC[C@H]2C(=O)O[C@H]([C@H](C)C[C@@H]2CC[C@@H](OP(C)(C)=O)[C@H](OC)C2)CC(=O)[C@H](C)/C=C(\C)[C@@H](O)[C@@H](OC)C(=O)[C@H](C)C[C@H](C)/C=C/C=C/C=C/1C` [RIDAFOROLIMUS], the Kd (in experiment [1]; in experiment [2]; in experiment [3]; at Ephrin type-A receptor 2; in experiment [4]; in experiment [5]) was > 30 µM (inactive) in each case. Further, the Kd (in experiment [6]; in experiment [7]; on Deoxycytidine kinase; in experiment [8]) was > 30 µM (inactive) throughout.

Take `N#CC1(c2ccc(NC(=O)c3cccnc3NCc3ccncc3)cc2)CCCC1` [RIVOCERANIB]: the Kd (in [1]; in experiment [2]; in experiment [3]; on Ephrin type-A receptor 2; in experiment [4]; in experiment [5]) was > 30 µM (inactive) each time. In addition, the Kd (in experiment [6]; in experiment [7]; at Deoxycytidine kinase; in experiment [8]) was > 30 µM (inactive) in each case.

For `O=c1[nH]ccc2cc(OC3CCNCC3)ccc12` [SAR-407899 FREE BASE], the Kd (in [1]; in experiment [2]; in experiment [3]; at Ephrin type-A receptor 2; in experiment [4]; in [5]) was > 30 µM (inactive) throughout. The Kd (in [6]; in experiment [7]; at Deoxycytidine kinase; in [8]) was > 30 µM (inactive) in each case.

For the compound `CN1CCN(CCOc2cc(OC3CCOCC3)c3c(Nc4c(Cl)ccc5c4OCO5)ncnc3c2)CC1` [SARACATINIB], the Kd in experiment [1] was > 30 µM (inactive); in experiment [2], > 30 µM (inactive); in experiment [3], > 30 µM (inactive); on Ephrin type-A receptor 2, 0.729 µM (active); in [4] it was > 30 µM (inactive); in [5], > 30 µM (inactive). Besides, the Kd (in experiment [6]; in experiment [7]; on Deoxycytidine kinase; in [8]) was > 30 µM (inactive) throughout.

Take `Cn1cc(-c2cnn3c(N)c(Br)c([C@@H]4CCCNC4)nc23)cn1` [SCH-900776]: the Kd (in experiment [1]; in experiment [2]; in [3]; on Ephrin type-A receptor 2; in [4]; in experiment [5]) was > 30 µM (inactive) in each case. Moreover, the dissociation constant Kd was 1.25 µM in experiment [6], > 30 µM (inactive) in experiment [7], > 30 µM (inactive) on Deoxycytidine kinase and > 30 µM (inactive) in experiment [8].

Consider `CO[C@H]1C[C@@H]2CC[C@@H](C)[C@@](O)(O2)C(=O)C(=O)N2CCCC[C@H]2C(=O)O[C@H]([C@H](C)C[C@@H]2CC[C@@H](O)[C@H](OC)C2)CC(=O)[C@H](C)/C=C(\C)[C@@H](O)[C@@H](OC)C(=O)[C@H](C)C[C@H](C)/C=C/C=C/C=C/1C` [SIROLIMUS], for which the Kd (in [1]; in experiment [2]; in experiment [3]; at Ephrin type-A receptor 2; in experiment [4]; in experiment [5]) was > 30 µM (inactive) throughout. The Kd (in experiment [6]; in experiment [7]; on Deoxycytidine kinase; in experiment [8]) was > 30 µM (inactive) in each case.

For the compound `CO[C@H]1C[C@@H]2CC[C@@H](C)[C@@](O)(O2)C(=O)C(=O)N2CCCC[C@H]2C(=O)O[C@H]([C@H](C)C[C@@H]2CC[C@@H](OC(=O)C(C)(CO)CO)[C@H](OC)C2)CC(=O)[C@H](C)/C=C(\C)[C@@H](O)[C@@H](OC)C(=O)[C@H](C)C[C@H](C)/C=C/C=C/C=C/1C` [TEMSIROLIMUS], the Kd (in experiment [1]; in [2]; in experiment [3]; on Ephrin type-A receptor 2; in experiment [4]; in [5]) was > 30 µM (inactive) each time. For the same compound, the Kd (in [6]; in [7]; at Deoxycytidine kinase; in [8]) was > 30 µM (inactive) in each case.
